These results are taken from PubChem BioAssay (NCI).

Each structure is given as a SMILES string.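 Growth conditions: 96-well plates. Treatment: test compound, 48 hours, 5 concentrations. Analysis: linear interpolation between bracketing concentrations; unreached endpoints set to highest concentration. TGI is the concentration that stops growth completely.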

The test system of one assay is COLO 205 colon. Description: NCI tumour cell line growth inhibition, 48 h.
`O=C(Sc1c(-c2ccccc2)c(=O)n(-c2ccccc2)c(=S)n1-c1ccccc1)c1ccco1` showed a TGI greater than 100 µM.
The same measure, in the same setting: the result for `Cn1nc2c(c1N)Cc1c(nn(C)c1N)-c1ccccc1-2` reads greater than 100 µM.
Same read-out and setting: under `O=c1ccn(-c2ccccn2)c(=O)n1-c1ccccn1` stands greater than 100 µM; under `O=C1NC(=S)NC(=O)C1C(c1ccc(Cl)cc1)C1C(=O)NC(=S)NC1=O`, greater than 100 µM.
On the same count and under the same terms, the result for `COC(=O)C1=C(C(=O)OC)SC(=C2SC3=C(SC(=C4SCCS4)S3)S2)S1` reads greater than 100 µM; that for `CCC(=O)Nc1ccc(NS(=O)(=O)c2ccc(Cl)cc2)cc1`, greater than 100 µM.
In turn, `COc1cccc(N2C(=O)CS(=O)(=O)C2c2cccc(Oc3ccccc3)c2)c1` (stereo not given) came in with a TGI of 42.4 µM.
`O=C(/C=C\Nc1ccccc1O)C(F)(F)F` displayed a TGI of 71.1 µM.
Still for that read-out and setting: the result for `CC1(C)OC[C@@H](C[C@H](O)COCc2ccccc2)O1` reads greater than 100 µM; that for `NC(N)=NS(=O)(=O)c1ccc(NC(=O)c2cccc3c(NNc4ccc(S(N)(=O)=O)cc4)c4ccccc4nc23)cc1`, greater than 100 µM.
`CC(=O)N(C)c1ccc(Nc2ccnc3ccc4nn(C)nc4c23)cc1` returned a TGI of 45.2 µM.
Turning to `Nc1nncc2[nH]cnc12`, the TGI is greater than 60.9 µM.
On to `S=c1[nH]nc(Cn2c3ccc(Br)cc3c3nc4ccccc4nc32)n1C1CCCCC1`, for which the TGI was greater than 59.8 µM.
In the case of `COc1ccc2c(c1)-c1c(c3cc(OC)ccc3n1CCN(C)C)CC2`, the TGI came to 25.5 µM.
The same measure, in the same setting: the result for `COc1ccc(C2=C(Cl)C(=O)O/C2=C\c2ccc(OC)c(Br)c2)cc1Cl` reads greater than 100 µM; that for `CNC(=S)NNc1ncnc2c1c(-c1ccc(Cl)cc1)cn2-c1ccc(C)cc1`, 29.6 µM; that for `CCCCCCCCCCCCNC(=O)CCC(NC(=O)c1ccc(N(C)Cc2cnc3nc(N)nc(N)c3n2)cc1)C(=O)NCCCCCCCCCCCC` (stereo not given), greater than 100 µM.
Same read-out and setting: the result for `Clc1cc(C(c2cc(Cl)sc2Cl)c2cc(Cl)sc2Cl)c(Cl)s1` reads greater than 100 µM; that for `COc1cc(OC)cc(Oc2nc3cc(F)c(F)cc3nc2-c2ccccc2)c1`, greater than 100 µM.
Still for that read-out and setting: under `Cc1cc(S(=O)(=O)Nc2n[nH]c(Nc3ccccc3)n2)c(SCC(=O)O)cc1Cl` stands greater than 100 µM.
Consider `NCCN(CCN(C(=O)Nc1ccccc1)c1ccccc1)C(=O)Nc1ccccc1`, for which the TGI was determined as 67.4 µM.
The same measure, in the same setting: the result for `C[C@H](c1ccccc1)N1C(=O)[C@@H](OCc2ccccc2)[C@H]1[C@H](COC(=O)COCc1ccccc1)OCc1ccccc1` reads greater than 100 µM.

The next assay relates to DU-145 prostate. Briefly: NCI tumour cell line growth inhibition, 48 h.
Turning to `Cc1ccc2c(c1C)CC1(Cc3c(C)ccc(C)c3C1=O)C2=O` (stereo not given), the TGI was greater than 100 µM.
Still for that read-out and setting: under `O=CN1CCN(C(=O)c2ccco2)C1=S` stands 11.6 µM.
`CC(=O)C1(O)CCC2(O)C3(O)CC=C4CC(O)CCC4(C)C3CC(OC(=O)c3ccc(O)cc3)C12C` (stereo not given) showed a TGI greater than 100 µM.
On to `Clc1ccc(OCc2nnc(COc3ccc(OCc4nnc(COc5ccc(Cl)cc5Cl)o4)c(Cl)c3)o2)c(Cl)c1`, for which the TGI is greater than 100 µM.
The same measure, in the same setting: under `O=C1/C(=C/c2ccncc2)C(n2cccc2)c2c(Br)sc(Br)c21` (stereo not given) stands 12.9 µM; under `C=C1CC(COc2ccc3c(C)c(C)c(=O)oc3c2C)(c2ccccc2)OC1=O` (stereo not given), 6 µM.
Same read-out and setting: under `CC(=O)OCC(=O)O[C@@H]1[C@H]2[C@@H](OC(=O)c3ccccc3)[C@@H](C)C[C@]2(O)[C@H](OC(C)=O)[C@@]2(C)C[C@]1(OC(C)=O)C[C@H]1C(=O)C(C)(C)[C@@H](OC(C)=O)[C@@H]12` stands greater than 25 µM.
The molecule `O=C(Sc1c(-c2ccccc2)c(=O)n(-c2ccccc2)c(=S)n1-c1ccccc1)c1ccco1` yielded a TGI greater than 100 µM.
On the same count and under the same terms, under `Cn1nc2c(c1N)Cc1c(nn(C)c1N)-c1ccccc1-2` stands greater than 100 µM; under `O=c1ccn(-c2ccccn2)c(=O)n1-c1ccccn1`, greater than 100 µM.
Turning to `O=C1NC(=S)NC(=O)C1C(c1ccc(Cl)cc1)C1C(=O)NC(=S)NC1=O`, the TGI was greater than 100 µM.
Same read-out and setting: the result for `COC(=O)C1=C(C(=O)OC)SC(=C2SC3=C(SC(=C4SCCS4)S3)S2)S1` reads greater than 100 µM; that for `CCC(=O)Nc1ccc(NS(=O)(=O)c2ccc(Cl)cc2)cc1`, greater than 100 µM.
Same read-out and setting: under `COc1cccc(N2C(=O)CS(=O)(=O)C2c2cccc(Oc3ccccc3)c2)c1` (stereo not given) stands greater than 100 µM; under `O=C(/C=C\Nc1ccccc1O)C(F)(F)F`, greater than 100 µM; under `CC1(C)OC[C@@H](C[C@H](O)COCc2ccccc2)O1`, greater than 100 µM.
`NC(N)=NS(=O)(=O)c1ccc(NC(=O)c2cccc3c(NNc4ccc(S(N)(=O)=O)cc4)c4ccccc4nc23)cc1` displayed a TGI greater than 100 µM.
Still for that read-out and setting: the result for `CC(=O)N(C)c1ccc(Nc2ccnc3ccc4nn(C)nc4c23)cc1` reads 92.2 µM; that for `Nc1nncc2[nH]cnc12`, greater than 100 µM; that for `S=c1[nH]nc(Cn2c3ccc(Br)cc3c3nc4ccccc4nc32)n1C1CCCCC1`, greater than 100 µM.
The molecule `COc1ccc2c(c1)-c1c(c3cc(OC)ccc3n1CCN(C)C)CC2` came in with a TGI of 26.7 µM.
Still for that read-out and setting: the result for `COc1ccc(C2=C(Cl)C(=O)O/C2=C\c2ccc(OC)c(Br)c2)cc1Cl` reads greater than 100 µM; that for `CNC(=S)NNc1ncnc2c1c(-c1ccc(Cl)cc1)cn2-c1ccc(C)cc1`, 43.4 µM.
The same measure, in the same setting: under `CCCCCCCCCCCCNC(=O)CCC(NC(=O)c1ccc(N(C)Cc2cnc3nc(N)nc(N)c3n2)cc1)C(=O)NCCCCCCCCCCCC` (stereo not given) stands greater than 100 µM.
The same measure, in the same setting: the result for `Clc1cc(C(c2cc(Cl)sc2Cl)c2cc(Cl)sc2Cl)c(Cl)s1` reads greater than 100 µM; that for `COc1cc(OC)cc(Oc2nc3cc(F)c(F)cc3nc2-c2ccccc2)c1`, greater than 100 µM.
`Cc1cc(S(=O)(=O)Nc2n[nH]c(Nc3ccccc3)n2)c(SCC(=O)O)cc1Cl`: the TGI is greater than 100 µM.
Same read-out and setting: under `NCCN(CCN(C(=O)Nc1ccccc1)c1ccccc1)C(=O)Nc1ccccc1` stands 40.1 µM; under `C[C@H](c1ccccc1)N1C(=O)[C@@H](OCc2ccccc2)[C@H]1[C@H](COC(=O)COCc1ccccc1)OCc1ccccc1`, greater than 100 µM.

The test system of a further assay is HCT-116 colon. Briefly: NCI tumour cell line growth inhibition, 48 h.
In the case of `Cc1ccc2c(c1C)CC1(Cc3c(C)ccc(C)c3C1=O)C2=O` (stereo not given), the TGI is greater than 100 µM.
The same measure, in the same setting: the result for `O=CN1CCN(C(=O)c2ccco2)C1=S` reads 24.5 µM.
Same read-out and setting: the result for `CC(=O)C1(O)CCC2(O)C3(O)CC=C4CC(O)CCC4(C)C3CC(OC(=O)c3ccc(O)cc3)C12C` (stereo not given) reads greater than 100 µM; that for `Clc1ccc(OCc2nnc(COc3ccc(OCc4nnc(COc5ccc(Cl)cc5Cl)o4)c(Cl)c3)o2)c(Cl)c1`, greater than 100 µM; that for `O=C1/C(=C/c2ccncc2)C(n2cccc2)c2c(Br)sc(Br)c21` (stereo not given), 10.4 µM.
Still for that read-out and setting: under `C=C1CC(COc2ccc3c(C)c(C)c(=O)oc3c2C)(c2ccccc2)OC1=O` (stereo not given) stands 2.77 µM.
As for `CC(=O)OCC(=O)O[C@@H]1[C@H]2[C@@H](OC(=O)c3ccccc3)[C@@H](C)C[C@]2(O)[C@H](OC(C)=O)[C@@]2(C)C[C@]1(OC(C)=O)C[C@H]1C(=O)C(C)(C)[C@@H](OC(C)=O)[C@@H]12`, the TGI is greater than 25 µM.
`O=C(Sc1c(-c2ccccc2)c(=O)n(-c2ccccc2)c(=S)n1-c1ccccc1)c1ccco1` displayed a TGI greater than 100 µM.
The same measure, in the same setting: under `Cn1nc2c(c1N)Cc1c(nn(C)c1N)-c1ccccc1-2` stands greater than 100 µM; under `O=c1ccn(-c2ccccn2)c(=O)n1-c1ccccn1`, greater than 100 µM; under `O=C1NC(=S)NC(=O)C1C(c1ccc(Cl)cc1)C1C(=O)NC(=S)NC1=O`, greater than 100 µM.
Still for that read-out and setting: under `COC(=O)C1=C(C(=O)OC)SC(=C2SC3=C(SC(=C4SCCS4)S3)S2)S1` stands greater than 100 µM; under `CCC(=O)Nc1ccc(NS(=O)(=O)c2ccc(Cl)cc2)cc1`, greater than 100 µM.
Same read-out and setting: under `COc1cccc(N2C(=O)CS(=O)(=O)C2c2cccc(Oc3ccccc3)c2)c1` (stereo not given) stands 24.7 µM.
